Measured values published in ChEMBL document CHEMBL3352658 (Eur J Med Chem, 2014).

Columns and labels:
Tumor necrosis factor [1] = target: T1, Tumor necrosis factor (Homo sapiens, UniProt P01375); test: Inhibition of recombinant human TNFalpha binding to TNF receptor 1-ECD at 100 uM by surface plasmon resonance-based in vitro competitive binding assay
Tumor necrosis factor [2] = target: T1, Tumor necrosis factor; test: Inhibition of TNFalpha in HEK293T cells transfected with plasmid hRluc/TK/ luc2P/NF-kBRE/Hygro plasmid at 90 uM after 12 hrs by Dual-glo luciferase assay system; assay type: cell-based; settings: HEK-293T
Tumor necrosis factor [3] = target: T1, Tumor necrosis factor; test: Inhibition of TNFalpha in HEK293T cells transfected with plasmid hRluc/TK/ luc2P/NF-kBRE/Hygro plasmid at 30 uM after 12 hrs by Dual-glo luciferase assay system; assay type: cell-based; settings: HEK-293T
Tumor necrosis factor [4] = target: T1, Tumor necrosis factor; test: Inhibition of TNFalpha in HEK293T cells transfected with plasmid hRluc/TK/ luc2P/NF-kBRE/Hygro plasmid after 12 hrs by Dual-glo luciferase assay system; assay type: cell-based, HEK-293T
Tumor necrosis factor [5] = target: T1, Tumor necrosis factor; test: Inhibition of TNFalpha (unknown origin) assessed as IkappaB-alpha phosphorylation in Hela cells after 15 mins by ELISA; assay type: cell-based

T1 sequence (P01375 whole entry, the tested form may be a part): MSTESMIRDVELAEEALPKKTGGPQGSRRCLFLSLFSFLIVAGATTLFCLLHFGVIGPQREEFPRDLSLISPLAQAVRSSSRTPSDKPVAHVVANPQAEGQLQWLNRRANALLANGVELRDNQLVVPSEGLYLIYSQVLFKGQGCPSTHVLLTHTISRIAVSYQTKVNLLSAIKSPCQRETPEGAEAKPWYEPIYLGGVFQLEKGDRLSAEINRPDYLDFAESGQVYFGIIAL

SMILES	inhibition (Tumor necrosis factor [1]) [%]	other results
CCOc1cc(C2NC(=O)NC(c3ccccc3)=C2C(C)=O)c(Br)c(Br)c1OCC(N)=O (stereo not drawn)	16	
Cc1ccc(C(=O)C2=C(O)C(=O)N(c3cccc(C(F)(F)F)c3)C2c2ccccc2[N+](=O)[O-])cc1 (stereo not drawn)	26	
CCOc1cc(/C=C2\C(=O)Nc3ccc(Br)cc32)cc(Cl)c1O	24	inhibition (Tumor necrosis factor [2]): 40%
N#CC1=C(N)Oc2n[nH]c(-c3ccccc3)c2C1c1ccc(OCC(N)=O)cc1 (stereo not drawn)	20	
COc1ccc(C2Nc3ccccc3-c3nnc(SCc4ccccc4Cl)nc3O2)cc1C (stereo not drawn)	32	
CC(=O)Oc1ccc(C)cc1N1C(=O)c2cccc([N+](=O)[O-])c2C1=O	68	
Cc1cccc(/N=C2/NC(=O)/C(=C/c3cc(C)n(-c4cc(C(=O)O)cc(C(=O)O)c4)c3C)S2)c1C	32	
O=S(=O)(Nc1ccc(O)c(Cl)c1)c1ccc(F)cc1	31	inhibition (Tumor necrosis factor [3]): 30%; IC50 (Tumor necrosis factor [4]; read-out: IC50): > 100 µM
O=S(=O)(Nc1cc(Cl)c(O)c(Cl)c1)c1ccc2ccccc2c1	37	inhibition (Tumor necrosis factor [3]): 30%; IC50 (Tumor necrosis factor [4]; read-out: IC50): > 100 µM
O=C1Sc2c(S(=O)(=O)Nc3ccc(O)cc3)cc(S(=O)(=O)Nc3ccc(O)cc3)c3cccc1c23	52	IC50 (Tumor necrosis factor [5]): 25.3 µM; IC50 (Tumor necrosis factor [4]; read-out: IC50): 14 µM
O=C(O)CCCNS(=O)(=O)c1ccc2c3c(cccc13)C(=O)N2		IC50 (Tumor necrosis factor [4]; hek-293t): Not Active
COC(=O)[C@@](NNc1ccc(C)c(C)c1)(NC(=O)c1ccc(Cl)cc1Cl)C(F)(F)F	17	
O=C1Nc2ccc(S(=O)(=O)Nc3ccc(O)c(Cl)c3)c3cccc1c23	28	IC50 (Tumor necrosis factor [5]): 45.7 µM; IC50 (Tumor necrosis factor [4]; read-out: IC50): 42.3 µM
CCc1nnc(NC(=O)CSc2nnc(-c3ccc([N+](=O)[O-])cc3)n2-c2ccc(C)cc2)s1	35	
